Source: patent US8507656B2, “Stabilized angiopoietin-2 antibodies and uses thereof” (MedImmune Limited, priority 2008, dated 2013)
“Also recorded” adds a separate entry of the source. Read-outs that look alike come from different tables or passages of the source. Marks after values point to notes of the source that are not given here.

How the values were obtained:
[1] = system: MDA-MB-231 xenograft tumors; test: MDA-MB-231 orthotopic breast cancer xenograft model; format: in vivo; details: 3.19.3 10 mg/kg 2×wk i.p., AZD6495 30 mg/kg bid p.o. 18 d, combination of both
Experimental: (§1) The anti-tumor activity of the anti-Angiopoietin-2 monoclonal antibody 3.19.3 in combination with the small molecule CSF1R tyrosine kinase inhibitor AZD6495 was evaluated in a xenograft model of human breast carcinoma using the MDA-MB-231 cell line (FIG. 5a).
Breast adenocarcinoma MDA-MB-231 cells were cultured in flasks as routine until the cells reach sub-confluence. Immunodeficient 7-10 week old female nude mice were orthotopically implanted with 8×10^6 MDA-MB-231 cells suspended 1:1 in Matrigel into the mammary fat pad. The mice were then randomized into cohorts containing 10 mice once the tumors reached approximately 100 mm^3. The mice were treated by intraperitoneally (IP) injection with mAb 3.19.3 (10 mg/kg) twice per week for 3 weeks thereafter, or by oral administration of AZD6495 (30 mg/kg) following bid dosing for 18 days. […] The body weights of each animal, and the dimensions of each tumor were measured twice per week. The volume of the tumor was calculated as: Volume=Length×(Width)^2×0.5 cm^3, or by bilateral Vernier caliper measurement and, taking length to be the longest diameter across the tumor and width the corresponding perpendicular, calculated using the formula (π/6)×(length×width)×√(length×width). Growth inhibition from the start of treatment was assessed by comparison of the differences in tumor volume between control and treated groups.

MCF7 xenograft tumors = test: MCF7 breast cancer xenograft model; format: in vivo; details: 3.19.3 10 mg/kg 2×wk i.p., AZD6495 30 mg/kg bid p.o. 18 d, combination of both
Experimental: as §1, with “AZD6495 (4-[(2,4-difluorophenyl)amino]-7-ethoxy-6-(4-methylpiperazin-1-yl)quinoline-3-carboxamide)” for “AZD6495”, “MCF7” for “MDA-MB-231”, “4a).” for “5a).”
Materials and Methods: Breast carcinoma MCF7 cells were cultured in flasks as routine until the cells reach sub-confluence. Immunodeficient 7-10 week old male NCr-nude mice were subcutaneously implanted with 8×10^6 MCF7 cells suspended 1:1 in Matrigel in the right flank. […]
The mice were then randomized into cohorts containing 15 mice once the tumors reached approximately 100 mm^3. […] The body weights of each animal, and the dimensions of each tumor were measured twice per week. The volume of the tumor was calculated as: Volume=Length×(Width)^2×0.5 cm^3, or by bilateral Vernier caliper measurement and, taking length to be the longest diameter across the tumor and width the corresponding perpendicular, calculated using the formula (π/6)×(length×width)×√(length×width). Growth inhibition from the start of treatment was assessed by comparison of the differences in tumor volume between control and treated groups.

Calu6 xenograft tumors = format: in vivo; details: 3.19.3 10 mg/kg 2×wk i.p., Docetaxel 15 mg/kg/week i.v., combination of both
Experimental: (§2) The anti-tumor activity of 3.19.3 was evaluated in combination with Docetaxel in the Calu6 xenograft model of lung cancer. Calu6 cells were cultured in flasks as routine until the cells reached sub-confluence. Cell suspensions containing approximately 3×10E6 cells were injected subcutaneously into the flank of female Swiss nude mice. When the tumor volume reached 200 mm^3, the mice were randomized in treatment groups of 8-10 mice and the treatments were initiated. 3.19.3 (10 mg/kg) in saline was injected intraperitoneally, twice per week for 2 weeks. Docetaxel (15 mg/kg) was administered by intravenous administration following a weekly schedule. The dimensions of each tumor and body weights were measured at least twice per week. The volume of the tumor was calculated as: Volume=Length×(Width)×0.5 (cm^3).

HT-29 xenograft tumors = test: HT-29 xenograft model of colorectal cancer; format: in vivo; details: 3.19.3 10 mg/kg 2×wk i.p., Irinotecan 35 mg/kg/week i.v., combination of both
Experimental: as §2, with “Irinotecan” for “Docetaxel”, “HT-29” for “Calu6”, “colorectal” for “lung”, “Irinotecan (35” for “Docetaxel (15”, “(cm^3). […] The % tumor growth inhibition achieved is as follows: […]” for “(cm^3).”

Colo205 xenograft tumors = test: Colo205 xenograft model of colorectal cancer; format: in vivo; details: 3.19.3 10 mg/kg 2×wk i.p., Gemcitabine 50 mg/kg q3dx2 i.v., combination of both
Experimental: as §2, with “Gemcitabine” for “Docetaxel”, “Colo205” for “Calu6”, “colorectal” for “lung”, “Gemcitabine (50” for “Docetaxel (15”, “q3d” for “weekly”, “(cm^3). […] The % tumor growth inhibition achieved is as follows: […]” for “(cm^3).”

LoVo xenograft tumors = format: in vivo; details: 3.19.3 10 mg/kg 2×wk i.p., 5FU 100 mg/kg/week i.p., combination of both
Experimental: as §2, with “5-Fluoruracil (5FU)” for “Docetaxel”, “LoVo” for “Calu6”, “colorectal” for “lung”, “weeks and 5-Flurouracil (100” for “weeks. Docetaxel (15”, “intraperitoneal” for “intravenous”

H460 xenograft tumors = format: in vivo; details: 3.19.3 10 mg/kg 2×wk i.p., Oxaliplatin 5 mg/kg/week i.p., combination of both
Experimental: as §2, with “Oxaliplatin” for “Docetaxel”, “H460” for “Calu6”, “Oxaliplatin (5” for “Docetaxel (15”, “intraperitoneal” for “intravenous”

[2] = system: collagen induced arthritis
[3] = system: collagen-induced arthritis; test: Collagen-induced arthritis (CIA), dose response (Example 11); format: in vivo, male DBA/1 mice
[4] = Stability study: rate of aggregation of antibody formulations; format: physicochemical; details: 10 mg/ml in 10 mM histidine pH 6.0, two weeks
Experimental: Samples of the aforementioned formulations were incubated at either 25° C. or 40° C. for two weeks. As a measure of stability, the rate of aggregation (% aggregation/mth) was calculated after the two week time point.

[5] = Differential Scanning Calorimetry (DSC) analysis; format: physicochemical; details: 1 g/L antibody in 10 mM histidine, pH 6.0
[6] = means ± SEM, 3.19.3 10 mg/kg i.p every 3 days, hIgG i.p, Prednisolone 3 mg/kg p.o daily, 14 days from disease onset
[7] = 3 mg/kg po daily for 14 days from disease onset

CCOc1cc2ncc(C(N)=O)c(Nc3ccc(F)cc3F)c2cc1N1CCN(C)CC1 [AZD6495, 4-[(2,4-difluorophenyl)amino]-7-ethoxy-6-(4-methylpiperazin-1-yl)quinoline-3-carboxamide]
% tumor growth inhibition [1]: 25% | % tumor growth inhibition (MCF7 xenograft tumors): 32%

CC(=O)O[C@@]12CO[C@@H]1C[C@H](O)[C@@]1(C)C(=O)[C@H](O)C3=C(C)[C@@H](OC(=O)[C@H](O)[C@@H](NC(=O)OC(C)(C)C)c4ccccc4)C[C@@](O)([C@@H](OC(=O)c4ccccc4)[C@H]21)C3(C)C [Docetaxel]
% tumor growth inhibition (Calu6 xenograft tumors): 43%

CCc1c2c(nc3ccc(OC(=O)N4CCC(N5CCCCC5)CC4)cc13)-c1cc3c(c(=O)n1C2)COC(=O)[C@]3(O)CC [Irinotecan]
% tumor growth inhibition (HT-29 xenograft tumors): 56%

Nc1ccn([C@@H]2O[C@H](CO)[C@@H](O)C2(F)F)c(=O)n1 [Gemcitabine]
% tumor growth inhibition (Colo205 xenograft tumors): 8%

O=c1[nH]cc(F)c(=O)[nH]1 [5-flurouracil, 5-Flurouracil]
% tumor growth inhibition (LoVo xenograft tumors): 62% | % tumor growth inhibition (LoVo xenograft tumors; listed as 5 FU): 62%

O=C1[O][Pt]2([NH][C@@H]3CCCC[C@H]3[NH]2)[O]C1=O [Oxaliplatin]
% tumor growth inhibition (H460 xenograft tumors): 35%

C[C@]12C=CC(=O)C=C1CC[C@@H]1[C@@H]2[C@@H](O)C[C@@]2(C)[C@H]1CC[C@]2(O)C(=O)CO [Prednisolone]
histopathological evaluation of arthropathy lesions (in words) ([2]; 3.19.3 10 mg/kg, Human IgG isotype control, Prednisolone 3 mg/kg): marked reduction in the incidence and severity of all arthropathy lesions | % Inhibition (of AUC of clinical disease progression) [2, 6]: 76.1% ± 9.6% | Area Under Curve (AUC) of clinical disease progression [2, 6]: 24.5 ± 9.6 | % inhibition (AUC of Clinical Score) [3, 7]: 78% +/− 7%* | AUC of Clinical Score [3, 7]: 41 +/− 08 | CD31+ microvessel density in synovium (in words) ([3]; 3.19.3 at 1 and 10 mg/kg, prednisolone 3 mg/kg): significant reduction in microvessel density; also recorded: significant reduction in the presence of microvessels | incidence and severity of all measures (in words) ([3]; Prednisolone 3 mg/kg p.o.): marked reduction in the incidence and severity of all measures

B1: MEDI1/5 IgG1: heavy and light chains SEQ ID Nos. 7 and 3 in IgG1 format (antibody)
VH: QVQLVESGGGVVQPGRSLRLSCAASGFTFTNYGMHWVRQAPGKGLEWVAVISHDGNNKYYVDSVKGRFTISRDNSKNTLYLQMNSLRAEDTAVYYCAREGIDFWSGLNWFDPWGQGTLVTVSS
light: EIVLTQSPGTLSLSPGERATLSCRASQSITGSYLAWYQQKPGQAPRLLITGASSWATGIPDRFSGSGSGTDFTLTISRLEPEDFAVYYCQQYSSSPITFGQGTRLEIKRTVAAPSVFIFPPSDEQLKSGTASVVCLLNNFYPREAKVQWKVDNALQSGNSQESVTEQDSKDSTYSLSSTLTLSKADYEKHKVYACEVTHQGLSSPVTKSFNRGEC
modifications: IgG1 format
% Agg/mth @ 25° C. [4]: 0.21 % Agg/mth | % Agg/mth @ 40° C. [4]: 0.21 % Agg/mth | melting temperature [5]: about 76 °C

B2: MEDI1/5 IgG2: heavy and light chains SEQ ID Nos. 7 and 3 in IgG2 format (antibody)
VH: B1 VH
light: B1 light
modifications: IgG2 format
% Agg/mth @ 25° C. [4]: 0.61 % Agg/mth | % Agg/mth @ 40° C. [4]: 0.82 % Agg/mth | melting temperature [5]: about 76 °C | behaviour after melting in DSC (in words) ([5]; two independent trials): subsequently falls out of solution
